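Briefly, cells in 96-well plates were exposed to five compound concentrations for 48 h, and endpoints were estimated by linear interpolation. TGI marks complete inhibition of growth.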
Assays:
Assay in all cases: NCI-60 cell line screen, 48 h
ACHN renal = test system: ACHN renal
CCRF-CEM leukemia = test system: CCRF-CEM leukemia
EKVX NSCLC = test system: EKVX NSCLC
HCT-15 colon = test system: HCT-15 colon
HT29 colon = test system: HT29 colon
IGROV1 ovarian = test system: IGROV1 ovarian
LOX IMVI melanoma = test system: LOX IMVI melanoma
M14 melanoma = test system: M14 melanoma
MALME-3M melanoma = test system: MALME-3M melanoma
MDA-MB-231 breast = test system: MDA-MB-231 breast
MDA-N = test system: MDA-N
MOLT-4 leukemia = test system: MOLT-4 leukemia
NCI-H226 lung = test system: NCI-H226 lung
NCI/ADR-RES ovarian = test system: NCI/ADR-RES ovarian
OVCAR-5 ovarian = test system: OVCAR-5 ovarian
OVCAR-8 ovarian = test system: OVCAR-8 ovarian
SK-MEL-2 melanoma = test system: SK-MEL-2 melanoma
UO-31 renal = test system: UO-31 renal
HOP-92 NSCLC = test system: HOP-92 NSCLC

Structure (SMILES)	TGI (ACHN renal) [µM]	TGI (CCRF-CEM leukemia) [µM]	TGI (EKVX NSCLC) [µM]	TGI (HCT-15 colon) [µM]	TGI (HT29 colon) [µM]	TGI (IGROV1 ovarian) [µM]	TGI (LOX IMVI melanoma) [µM]	TGI (M14 melanoma) [µM]	TGI (MALME-3M melanoma) [µM]	TGI (MDA-MB-231 breast) [µM]	TGI (MDA-N) [µM]	TGI (MOLT-4 leukemia) [µM]	TGI (NCI-H226 lung) [µM]	TGI (NCI/ADR-RES ovarian) [µM]	TGI (OVCAR-5 ovarian) [µM]	TGI (OVCAR-8 ovarian) [µM]	TGI (SK-MEL-2 melanoma) [µM]	TGI (UO-31 renal) [µM]	TGI (HOP-92 NSCLC) [µM]
CCN(CC)CCSc1n[nH]c(-c2c[nH]c3nc(C)ccc3c2=O)n1	> 100	> 100	> 100	> 100	> 100	> 100	> 100	> 100	> 100	> 100	> 100	> 100	> 100	> 100	> 100	> 100	> 100	> 100	
CCOC(=O)CCSS(=O)(=O)C(F)(F)F	> 100	> 100	> 100	> 100		> 100	> 100	> 100			> 100		> 100	> 100	> 100	> 100	> 100	> 100	> 100
COC(=O)/C=C\[C@@H]1[C@H](C)N1S(=O)(=O)c1ccc(C)cc1 (some centres undefined)	> 100	> 100		> 100	> 100	> 100	> 100	> 100	> 100	> 100	> 100	> 100	> 100	> 100	> 100	> 100	> 100		
CC(C)c1cccc(C(C)C)c1NC(=O)C(=O)CC(=O)CC(c1ccccc1)c1c(O)c2ccccc2oc1=O (centres undefined)	> 100	> 100	> 100		> 100	> 100		> 100	> 100			> 100			> 100	> 100	> 100	> 100	> 100
CC(NC1=NCCO1)c1cccs1 (centres undefined)	> 100	78.5	> 100	> 100	42.6	61.6		35.7	76.8	> 100		> 100	> 100	> 100	> 100	> 100		92.8	47
OC1CSCCCSCCSCCCSC1	> 100		> 100	> 100	> 100	> 100	> 100	> 100		> 100	> 100	> 100	> 100		> 100	> 100	> 100	> 100	> 100
NC(N)=NCc1ccc2c(c1)OCO2	> 100	> 100	> 100	> 100	> 100	> 100	> 100	> 100	> 100	> 100	> 100	> 100		> 100	> 100		> 100	> 100	> 100
COC(=O)CCCC(=O)NC1=C(Nc2ccccc2)C(=O)c2ccccc2C1=O	62.2	76.2	49.7	41.1		30.2	41.6	29.6	12.9	43.8	15	45.5		56	30.7	> 100	34.2	46.1	73.6
CCCCCCCC/C=C\CCCCCCCC(=O)OC[C@]1(CO)CCC(=O)O1	> 100	> 100	> 100	> 100	> 100	> 100	> 100	> 100	> 100	> 100		> 100	> 100	> 100	> 100	> 100	> 100	> 100	> 100
Cc1ccc(S(=O)(=O)NC(=O)NC(C(=O)O)C(C)O)cc1 (centres undefined)	> 100	> 100		> 100	> 100	> 100	> 100	> 100	> 100	> 100	> 100	> 100		> 100	> 100	> 100	> 100	> 100	> 100
C/C(=N/NC(=S)N(C)CCc1ccccn1)c1cnccn1	3.51	> 68.2	12.8	29	11.9			7.37	5.11	21.2	20.9	> 71.1	0.0122		22	0.385	26.9	0.272	21.2
CC1(C)C(=O)N(O)C(C)(C)N1N=O	> 10	> 10	> 10	> 10	> 10			> 10	> 10	> 10		> 10	> 10	> 10	> 10	> 10	> 10	> 10	> 10
COc1cc(/C=C2\N=C(c3ccccc3)N(c3nc4cc(C)c(C)cc4s3)C2=O)cc(OC)c1OC	83.9	21.8	70.7	> 100	48.6	> 100	68.7	> 100		> 100	38.9	30.3		> 100	84.2	47.6	> 100	> 100	64.8
COC(=O)c1ccc(/C=C2\Cc3ccccc3C2=O)cc1	> 100	> 100	> 100	> 100	> 100			> 100		> 100	> 100	> 100		> 100		> 100		> 100	

Reference: PubChem BioAssay (NCI)
